The results in this text go back to patent publication US20020114804A1, “A METHOD OF TREATING INFECTION OF SUTURES AND PROSTHETIC DEVICES” (priority 1996, published 2002).

Holding throughout (format): cell-based, human
In assay [1] the test system is PMNs. In words: PMN migration through plasma clots (plasma gels). The conditions noted are these: chemoattractant in lower compartment, 6 hrs. On the procedure: (§1) Becton-Dickinson cell culture inserts (pore sizes 3 or 8 μm: Franklin Lakes, N.J.) were overlaid with the following proteins:
Clotted Plasma: Whole blood was collected and the cellular components were removed by centrifugation. The resulting plasma was mixed with an equal volume of PBS, and 100 μl of this mixture was placed into each insert containing thrombin and allowed to clot as described above. One unit of PPACK in 100 μl PBS then was added and the inserts were washed with 250 μl of PBS.
(§2) PMNs were prepared from fresh heparinized blood from healthy adult volunteers by sedimentation on Ficoll-Hypaque gradients. Contaminating red blood cells were removed by hypotonic lysis, as described (7). The purity of PMN isolated by this method is >95% as determined by Wright-Giemsa staining (7). 10^6 PMNs in 250 μl of PBS supplemented with 5.5 mM glucose and 0.1% human serum albumin (PBSG-HSA), were placed in the upper compartment of each insert and incubated for 0-6 hrs at 37° C. in a humidified atmosphere containing 95% air/5% CO2. […] The medium in each lower compartment was collected and its content of PMNs was determined using either a Coulter Counter or a hemocytometer. […] Counts are expressed as the average number of PMNs that migrated into the lower compartment. […]

The test system of assay [2] is monocytes. Put plainly: Monocyte migration through collagen I coated inserts. To be noted: collagen I alone, 24 h. The procedure: (§3) Cultured monocytes were prepared by allowing 10^7 total mononuclear cells, suspended in 10 ml of RMPI 1640 medium supplemented with 10% pooled human serum (1640+HS), or 10% autologous serum (1640+AS), to adhere to Falcon T-150 tissue culture Petri dishes for 2 h at 37° C. Non-adherent cells were removed by washing, leaving an adherent cell population consisting of greater than 98% monocytes as measured by their capacity to phagocytose IgG coated sheep red blood cells. For migration studies, monocytes were maintained in culture for 24 h in RPMI 1640+HS or AS, and detached from the dishes by gentle pipetting of 10 ml of ice cold phosphate buffered saline (without Ca^2+ or Mg^2+) containing 1.0 mM EDTA. The cells recovered were resuspended in RPMI-1640+HS as described (65).
Cell culture inserts containing polyethylene terephthalate filters, 8-μm pore size (Becton-Dickinson), were overlaid with 0.1 ml of Matrigel (20-25 μg protein/filter) (Collaborative Research, Bedford, Mass.), and incubated at room temperature until they dried. These Matrigel-coated filters were washed with phosphate buffered saline containing 1.0 mM Mg^2+ and 1.0 mM Ca^2+ (PBS). 0.1 ml of a PBS solution (pH 7.2) containing the indicated amount of purified chick brain tenascin was added to some of the inserts. The filters were incubated at room temperature until they dried. […]

In assay [3] the test system is monocytes. Put plainly: Monocyte migration through Matrigel or Matrigel/tenascin coated filters. To be noted: Matrigel alone.
Text: Mononuclear cells were isolated by centrifugation of heparinized human blood on Ficoll-Hypaque gradients as described (65, 66). The mononuclear cell fraction was resuspended in RMPI 1640 medium supplemented with 10% pooled human serum or autologous serum and used immediately for monocyte migration studies. For some experiments, monocytes were obtained by centrifugation of whole blood or of white blood cells concentrated from a unit of blood (leukopak), on Nycodenz gradients as described (39). More than 90% of the nucleated cells obtained by this Nycodenz method were monocytes, as assessed by their ability to phagocytose IgG-coated red blood cells.
as §3
Cell culture inserts containing polyethylene terephthalate filters, 8-μm pore size (Becton-Dickinson), were overlaid with 0.1 ml of Matrigel (20-25 μg protein/filter) (Collaborative Research, Bedford, Mass.), and incubated at room temperature until they dried. These Matrigel-coated filters were washed with phosphate buffered saline containing 1.0 mM Mg^2+ and 1.0 mM Ca^2+ (PBS). 0.1 ml of a PBS solution (pH 7.2) containing the indicated amount of purified chick brain tenascin was added to some of the inserts. The filters were incubated at room temperature until they dried. These protein-coated filters were washed again with PBS and used within 12 h for cell migration studies. To prepare collagen I-coated inserts, filters were coated with rat tail collagen I (ICN Biochemicals, Costa, Mesa, Calif.) (400 μg/ml in PBS), by adding 0.1 ml of this solution to an insert and incubating the inserts at room temperature for 24 h. Some of these collagen I-coated filters were then incubated with tenascin as described above.
Monocytes: Cell culture inserts were placed in 16 mm wells containing 0.5 mls of RPMI-1640+HS or AS in the presence or absence of a chemoattractant. 0.5 ml of RPMI-1640+HS or AS serum containing between 2-10×10^5 mononuclear phagocytes was added to the upper chamber of the inserts and the inserts were placed in a humidified CO2 incubator at 37° C. After 24 h the medium in the lower chamber was recovered and its cell content assayed using either a Coulter counter or a hemocytometer. […] Cell counts reported are the average number of cells recovered from the medium in the lower compartment of chemotaxis chambers. Over 90% of the cells in the lower chamber were identified as monocytes based on their morphology, their capacity to phagocytose IgG coated sheep red cells, and their staining with fluorescein-conjugated anti α,β monoclonal antibody (Oncogene Sciences, Uniondale, N.Y.). Unless otherwise indicated, all values are the average of duplicate samples run in parallel in a representative experiment. Each experiment was repeated at least three times with similar results.

The subject of assay [4] is PMNs. In words: PMN migration through gels of Matrigel or collagen IV. To be noted: added to the bottom chamber. On the procedure:
as §1
Collagen type IV and Matrigel matrices: 0.1 ml PBS containing 100 μg human placental collagen IV (Fluka Chemical Corp., Ronkonkoma, N.Y.), or 80 μg of reconstituted basement membrane proteins (Matrigel, Collaborative Research, Bedford, Mass.), was placed into each insert and allowed to gel at room temperature for 24 hrs.
as §2, with “CO2. At the times and concentrations specified, chemoattractants/cytokines were added to the top or bottom compartment in 250 μl of PBSG-HSA.” for “CO2.”

On to `CCCCC/C=C\C[C@@H](O)/C=C/C=C/C=C\[C@@H](O)CCCC(=O)O` [LTB4, leukotriene B4], for which, in the assay on PMNs [1], the “PMN migration through plasma gels formed by thrombin treatment of human plasma” value was “migrated”. For the same molecule, the “Monocytes that migrated through inserts coated with collagen I” value with monocytes [2] is given as 18%. In the assay with monocytes [3], the “Cultured monocytes that migrated through Matrigel-coated inserts” value is on record as roughly 15% and the “Freshly isolated human monocytes that migrated through Matrigel-coated inserts” value was “About 20%”. The “PMN migration through gels of Matrigel or collagen IV” value in the assay with PMNs [4] was “stimulated PMN migration”.
